Data on 24 compounds can be found in EP0973746B1, “SUBSTITUTED 3-CYANO QUINOLINES” (Wyeth Holdings Corporation, priority 1997, dated 1998).

Assay [1] has as its system SKBR3. The experiment in a line: Inhibition of cancer cell growth as measured by cell number, SKBR3.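 For all read-outs here: SK-BR-3 cells were selected as a line overexpressing HER2/neu.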 It is filed as cell-based, human. The following applies: Table 8; for IC50: Homo sapiens.
Description: (§1) The cell lines were chosen since they overexpressed epidermal growth factor receptor (EGFR) (i.e. A431) or HER2/neu (SKBR3), or had little to no expression of the these receptors (SW620, LOX, MCF7).
The subject of assay [2] is A431. The experiment in a line: Inhibition of cancer cell growth as measured by cell number, A431.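 For all read-outs here: human A431 line, picked because it overexpresses epidermal growth factor receptor (EGFR).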 Format: cell-based, human. To be noted: Table 8; for IC50: Homo sapiens, A-431, 48 h.
Description: as §1
Assay [3] addresses T1, His-tagged cytoplasmic domain of EGFR (Homo sapiens, UniProt P00533).
T1 construct: containing the EGFR cDNA encoding amino acids 645 - 1186 preceded by Met-Ala-(His)6; made in house; host or cells: Sf9 cells, recombinant baculovirus vHcEGFR52
Put plainly: Inhibition of Epidermal Growth Factor Receptor Kinase (EGF-R) using recombinant enzyme.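 Note: radiometric kinase assay measuring radiolabeled phosphate transfer from ATP onto the peptide tyrosine by scintillation counting, control is reaction without compound, background subtracted, IC50 from dose-response curve.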 Format: biochemical.
Protocol: The enzyme used in this assay is the His-tagged cytoplasmic domain of EGFR.
Compounds to be evaluated were made into 10 mg/mL stock solutions in 100% dimethylsulfoxide (DMSO). Prior to experiment, stock solutions were diluted to 500 µM with 100% DMSO and then serially diluted to the desired concentration with HEPES buffer (30 mM HEPES pH 7.4).
For the enzyme reaction, 10 µL of each inhibitor (at various concentrations) were added to each well of a 96-well plate. […] This was allowed to sit for 10 min on ice and was followed by the addition of 5 µl peptide (80 µM final conc.), 10µl of 4X Buffer (Table A), 0.25 µL ^33P-ATP and 12 µL H2O. The reaction was allowed to run for 90 min at room temperature and was followed by spotting the entire volume on to precut P81 filter papers. The filter discs were washed 2X with 0.5% phosphoric acid and radioactivity was measured using a liquid scintillation counter.
The % inhibition of the test compound was determined for at least three different concentrations and the IC50 value was evaluated from the dose response curve. […] CPM(control) is in units of counts per minute and was a number expressing the amount of radiolabeled ATP (g-33P) incorporated into the RR-SRC peptide substrate by the enzyme after 90 minutes at room temperature in the absence of test compound as measured by liquid scintillation counting. The CPM values were corrected for the background counts produced by ATP in the absence of the enzymatic reaction. The IC50 values reported in TABLE 2 are averages of the number of tests conducted.

Assay [4] concerns the target recombinant human MEK 1 (MAPKK) and recombinant human ERK2 (MAPK). The experiment in a line: Mitogen Activated Protein Kinase (MAPK) assay, two component coupled MEK 1 / ERK2.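 Note: MEK 1-activated ERK2 phosphorylates MBP or Myc peptide with 33P-ATP, filter capture and scintillation counting, inhibitor preincubated with ERK2 30 min at 0 °C, inhibition relative to uninhibited control.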 It is filed as biochemical. The following applies: separate entries for the same compound = evaluated more than one time.
Assay [5] relates to SW620. The experiment in a line: Inhibition of cancer cell growth as measured by cell number, SW620.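 For all read-outs here: SW620 was included as a cell line with little or no EGFR or HER2/neu expression, in contrast to receptor-overexpressing lines.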 Format: cell-based, human. To be noted: Table 8; for IC50: Homo sapiens, SW-620, 48 h.
Description: as §1
Setting [6] is: cell number, Sulforhodamine B, 48 hours exposure.
[7] abbreviates: recombinant enzyme, RR-SRC peptide, average of the number of tests, read-out: IC50.
[8] abbreviates: SK-BR-3, 48 h, read-out: IC50 SKBR3, cell number, Sulforhodamine B, 48 hours exposure.
The mark [9] stands for this setting: read-out: IC50 SW620, cell number, Sulforhodamine B, 48 hours exposure.
[10] abbreviates: read-out: IC50 A431, cell number, Sulforhodamine B, 48 hours exposure.
The mark [11] stands for this setting: SK-BR-3, cell number, Sulforhodamine B, 48 hours exposure, read-out: IC50 SKBR3.
The mark [12] stands for this setting: cell number, Sulforhodamine B, 48 hours exposure, read-out: IC50 SW620.
Setting [13] is: cell number, Sulforhodamine B, 48 hours exposure, read-out: IC50 A431.

≈ marks a conversion by molar mass, not a printed value. Where “and” joins values, the source holds several entries; their conditions need not be identical. Identical values can stand only once. Counter-ions that a name gives are not always drawn. Like-named read-outs stand apart in the source and are kept apart here.

In the case of “4-Dimethylamino-but-2-enoic acid [4-(3-bromophenylamino)-3-cyano-quinolin-6-yl]-amide [Example 99]”, the “IC50 SKBR3” value in assay [1] (setting [6]) was 0.1 µg/mL and 0.078 µg/mL. In assay [2] (setting [6]), the “IC50 A431” value is 0.3 µg/mL and 0.159 µg/mL. In addition, the IC50 in assay [3] (setting [7]) was determined as 30 nM.
`N#Cc1cnc2ccc(N)cc2c1Nc1cccc(I)c1` [Example 130, 6-Amino-4-[(3-iodophenyl)amino]-3-quinolinecarbonitrile]: the IC50 in assay [4] is above 100000 nM; in assay [3] (setting [7]) it was 100 nM.
For `CC#CC(=O)Nc1ccc2ncc(C#N)c(Nc3cccc(C)c3)c2c1` [Example 132, N-{3-Cyano-4-[(3-methylphenyl)amino]-6-quinolinyl}-2-butynamide], the 50% inhibitory concentration (IC50) in assay [4] was above 100000 nM; in assay [3] (setting [7]), 600 nM.
In the same order, the values of `Cc1cccc(Nc2c(C#N)cnc3ccc(N)cc23)c1` [Example 133, 6-Amino-4-[(3-methylphenyl)amino]-3-quinolinecarbonitrile] are above 100000 nM and 6 nM.
The matching figures for `CC#CC(=O)Nc1ccc2ncc(C#N)c(Nc3cccc(OC)c3)c2c1` [Example 139, N-{3-Cyano-4-[(3-methoxyphenyl)amino]-6-quinolinyl}-2-butynamide]: 35000 nM and 500 nM.
`CC#CC(=O)Nc1ccc2ncc(C#N)c(Nc3ccc(F)c(Cl)c3)c2c1` [Example 143, N-{4-[(3-Chloro-4-fluoro-phenyl)amino]-3-cyano-6-quinolinyl}-2-butynamide]: the IC50 in assay [4] amounted to 40000 nM; in assay [3] (setting [7]) it was 30 nM.
As to `C=CC(=O)Nc1ccc2ncc(C#N)c(Nc3ccc(F)c(Cl)c3)c2c1` [Example 144, N-{4-[(3-Chloro-4-fluorophenyl)amino]-3-cyano-6-quinolinyl}-2-propenamide], the IC50 in assay [4] came to 40000 nM; in assay [3] (setting [7]) it was 65 nM.
The matching figures for `CCN(CC)CC=CC(=O)Nc1ccc2ncc(C#N)c(Nc3ccc(F)c(Br)c3)c2c1` [Example 173, N-{4-[(3-Bromo-4-fluorophenyl)amino]-3-cyano-6-quinolinyl}-4-diethylamino-2-butenamide]: 8000 nM and 30 nM.
Turning to `COc1cc2ncc(C#N)c(Nc3ccc(F)c(Br)c3)c2cc1NC(=O)C=CCN1CCOCC1` [Example 175, N-{4-[(3-Bromo-4-fluorophenyl)amino]-3-cyano-7-methoxy-6-quinolinyl}-4-morpholino-2-butenamide], the IC50 in assay [1] (setting [8]) was 0.18 µg/mL (≈ 0.333 µM); in assay [5] (setting [9]) it was 4.95 µg/mL (≈ 9.16 µM); in assay [2] (setting [10]), 0.144 µg/mL (≈ 0.266 µM); in assay [3] (setting [7]), 300 nM.
With `CN(C)C/C=C\C(=O)Nc1ccc2ncc(C#N)c(Nc3ccc(F)c(Cl)c3)c2c1` [Example 184, N-[4-[(3-Chloro-4-fluorophenyl)amino]-3-cyano-6-quinolinyl]-4-dimethylamino-(Z)-2-butenamide], the IC50 worked out at 0.3 µg/mL (≈ 0.708 µM) in assay [1] (setting [8]), 0.463 µg/mL (≈ 1.09 µM) in assay [5] (setting [9]), 0.158 µg/mL (≈ 0.373 µM) in assay [2] (setting [10]) and 1700 nM in assay [3] (setting [7]).
With `COC/C=C\C(=O)Nc1ccc2ncc(C#N)c(Nc3ccc(F)c(Cl)c3)c2c1` [Example 185, N-[4-[(3-Chloro-4-fluorophenyl)amino]-3-cyano-6-quinolinyl]-4-methoxy-(Z)-2-butenamide], the IC50 was 1.11 µg/mL (≈ 2.7 µM) in assay [1] (setting [11]), 2.18 µg/mL (≈ 5.31 µM) in assay [5] (setting [12]), 0.34 µg/mL (≈ 0.828 µM) in assay [2] (setting [13]) and at least 10000 nM in assay [3] (setting [7]).
For the compound `COc1cc2ncc(C#N)c(Nc3cccc(Br)c3)c2cc1NC(=O)C=CCN(C)C` [Example 198, 4-Dimethylamino-but-2-enoic acid [4-(3-brom-phenylamino)-3-cyano-7-methoxy-quinolin-6yl]-amide], the “IC50 SKBR3” value in assay [1] (setting [6]) was 0.03 µg/mL (≈ 0.0625 µM). The “IC50 SW620” value in assay [5] (setting [6]) stood at 0.4 µg/mL (≈ 0.833 µM). Moreover, in assay [2] (setting [6]), the “IC50 A431” value came to 0.002 µg/mL (≈ 0.00416 µM). In assay [3], the IC50 was found to be 0.008 nM.
For `CCN(CC)CC=CC(=O)Nc1cc2c(Nc3cccc(Br)c3)c(C#N)cnc2cc1OC` [Example 199, 4-Diethylamino-but-2-enoic acid [4-(3-bromo-phenylamino)-3-cyano-7-methoxy-quinolin-6-yl]-amide], the IC50 in assay [1] (setting [11]) worked out at 0.076 µg/mL (≈ 0.149 µM); in assay [5] (setting [12]), 0.433 µg/mL (≈ 0.852 µM); in assay [2] (setting [13]), 0.048 µg/mL (≈ 0.0944 µM); in assay [3] (setting [7]), 0.5 nM.
On to `COc1cc2ncc(C#N)c(Nc3cccc(Br)c3)c2cc1NC(=O)C#CCN(C)C` [Example 227, 4-Dimethylamino-but-2-ynoic acid [4-(3-bromo-phenylamino)-3-cyano-7-methoxy-quinol-6-yl]-amide], for which the IC50 in assay [1] (setting [8]) was 0.2 µg/mL (≈ 0.418 µM); in assay [5] (setting [9]), 0.1 µg/mL (≈ 0.209 µM); in assay [2] (setting [10]), 0.02 µg/mL (≈ 0.0418 µM); in assay [3] (setting [7]) it was 10 nM.
On to `COc1cc2ncc(C#N)c(Nc3cccc(N)c3)c2cc1OC` [Example 264, 4-(3-Aminophenylamino)-6,7-dimethoxy-3-quinolinecarbonitrile], for which the IC50 came to 3000 nM in assay [4] and 500 nM in assay [3] (setting [7]).
For `COc1cc2ncc(C#N)c(Nc3cccc(CS)c3)c2cc1OC` [Example 270], the values for the IC50 in assay [4] and in assay [3] (setting [7]) were above 100000 nM and 10 nM, respectively.
`COc1cc2c(Nc3cccc(Br)c3)c(C#N)cnc2cc1OCCCN1CCOCC1` [Example 313, 4-(3-Bromo-phenylamino)-6-methoxy-7-(3-morpholin-4-yl-propoxy)-quinoline-3-carbonitrile]: the IC50 in assay [4] is above 100000 nM; in assay [3] (setting [7]), 400 nM.
The matching figures for `N#Cc1cnc2ccc(NC(=O)/C=C/Cl)cc2c1Nc1cccc(Br)c1` [Example 326, N-[4-(3-Bromo-phenylamino)-3-cyano-quinolin-6-yl]-3-chloro-(E) acrylamide]: 35000 nM and 0.05 nM.
As for `N#Cc1cnc2ccc(NC(=O)/C=C\Cl)cc2c1Nc1cccc(Br)c1` [Example 327, N-[4-(3-Bromo-phenylamino)-3-cyano-quinolin-6-yl]-3-chloro-(Z)-acrylamide], in assay [3] (setting [7]), the half-maximal inhibitory concentration (IC50) came to 10 nM.
As to `COc1cc2ncc(C#N)c(Nc3cccc(Br)c3)c2cc1NC(=O)C=CCCl` [Example 347, N-{4-[(3-Bromophenyl)amino]-3-cyano-7-methoxy-6-quinolinyl} -4-chloro-2-butenamide], the IC50 in assay [1] (setting [11]) worked out at 0.2 µg/mL (≈ 0.424 µM); in assay [5] (setting [12]), 0.2 µg/mL (≈ 0.424 µM); in assay [2] (setting [13]), 0.04 µg/mL (≈ 0.0848 µM); in assay [3] (setting [7]) it was 40 nM.
As for `COc1cc2ncc(C#N)c(Nc3ccc(Cl)cc3F)c2cc1N` [Example 360, 6-Amino-4[(4-Chloro-2-fluorophenyl)amino]-7-methoxy-3-quinolinecarbonitrile], in assay [3] (setting [7]), the half-maximal inhibitory concentration (IC50) is 500 nM.
In the case of `C=CC(=O)Nc1ccc2ncc(C#N)c(Nc3ccc(Br)c(Br)c3)c2c1` [Example 380, N-[3-Cyano-4-(3,4-dibromophenylamino)quinolin-6-yl]acrylamide], the IC50 in assay [4] was above 100000 nM; in assay [3] (setting [7]), 7 nM.
`C=C(C)C(=O)Nc1ccc2ncc(C#N)c(Nc3cccc(Br)c3)c2c1` [Example 383, N-[4-(3-Bromophenylamino)-3-cyanoquinolin-6-yl]-2-methylacrylamide]: the 50% inhibitory concentration (IC50) was above 100000 nM in assay [4] and 7 nM in assay [3] (setting [7]).
In the same order, the values of `CN(C)c1ccc2ncc(C#N)c(Nc3cccc(Br)c3)c2c1` [Example 395, 4-(3-Bromophenylamino)-6-dimethylaminoquinoline-3-carbonitrile Hydrochloride] are 15000 nM and 500 nM.

Broadly, the IC50 is the concentration at which inhibition is half-maximal.
